Assay results reported in ChEMBL document CHEMBL1201862, “PubChem BioAssay data set” (2004).
The source made the active and inactive calls.

Legend:
[1] = target: Matrix metalloproteinase-14 (Homo sapiens, UniProt P50281); experiment: Dose Response confirmation of uHTS hits for a small molecule inhibitors of MT1-MMP activation in a fluorescence assay set 1.; assay type: functional
[2] = target: Alkaline phosphatase, placental type (Homo sapiens, UniProt P05187); experiment: human placental alkaline phosphatase inhibition – biochemical, luminescence, confirmation (AID 1512); assay type: functional
[3] = HGIII-sPLA2 enzyme inhibition potency – biochemical, QFRET, IC50, dose response (AID 743457);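 further: green fluorescence rise as the enzyme cleaves BODIPY PC-A2 in liposomes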
[4] = target: ADP-ribosylation factor GTPase-activating protein 1 (Rattus norvegicus, UniProt Q62848); experiment: Fluorescence polarization-based biochemical high throughput dose response screening assay to identify inhibitors of ADP-ribosylation factor GTPase activating protein 1 (ARFGAP1).; assay type: functional
HEK293 [5] = experiment: NOD2 signaling inhibitors in MDP-stimulated cells, cell-based, uHTS, luminescence (AID 2001); assay type: functional; conditions: Homo sapiens
HEK293 [6] = experiment: inhibition of NOD1-driven NF-kB reporter – cell-based, luminescence, uHTS, primary screen (AID 1578); assay type: functional; conditions: Homo sapiens
HEK293 [7] = experiment: cells; assay type: functional, cell-based; conditions: Homo sapiens
HEK293 [8] = experiment: cells; assay type: functional, cell-based; conditions: Homo sapiens; remark: listed apart in the source
[9] = target: Arf-GAP with SH3 domain, ANK repeat and PH domain-containing protein 1 (Homo sapiens, UniProt Q9ULH1); assay type: functional;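 further: biochemical fluorescence polarization dose–response screen measuring inhibition of ASAP1; ASAP1 GAP domain stimulating GTP hydrolysis by truncated human ARF1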
Sequence of Arf-GAP with SH3 domain, ANK repeat and PH domain-containing protein 1 (Q9ULH1 whole entry, the tested form may be a part): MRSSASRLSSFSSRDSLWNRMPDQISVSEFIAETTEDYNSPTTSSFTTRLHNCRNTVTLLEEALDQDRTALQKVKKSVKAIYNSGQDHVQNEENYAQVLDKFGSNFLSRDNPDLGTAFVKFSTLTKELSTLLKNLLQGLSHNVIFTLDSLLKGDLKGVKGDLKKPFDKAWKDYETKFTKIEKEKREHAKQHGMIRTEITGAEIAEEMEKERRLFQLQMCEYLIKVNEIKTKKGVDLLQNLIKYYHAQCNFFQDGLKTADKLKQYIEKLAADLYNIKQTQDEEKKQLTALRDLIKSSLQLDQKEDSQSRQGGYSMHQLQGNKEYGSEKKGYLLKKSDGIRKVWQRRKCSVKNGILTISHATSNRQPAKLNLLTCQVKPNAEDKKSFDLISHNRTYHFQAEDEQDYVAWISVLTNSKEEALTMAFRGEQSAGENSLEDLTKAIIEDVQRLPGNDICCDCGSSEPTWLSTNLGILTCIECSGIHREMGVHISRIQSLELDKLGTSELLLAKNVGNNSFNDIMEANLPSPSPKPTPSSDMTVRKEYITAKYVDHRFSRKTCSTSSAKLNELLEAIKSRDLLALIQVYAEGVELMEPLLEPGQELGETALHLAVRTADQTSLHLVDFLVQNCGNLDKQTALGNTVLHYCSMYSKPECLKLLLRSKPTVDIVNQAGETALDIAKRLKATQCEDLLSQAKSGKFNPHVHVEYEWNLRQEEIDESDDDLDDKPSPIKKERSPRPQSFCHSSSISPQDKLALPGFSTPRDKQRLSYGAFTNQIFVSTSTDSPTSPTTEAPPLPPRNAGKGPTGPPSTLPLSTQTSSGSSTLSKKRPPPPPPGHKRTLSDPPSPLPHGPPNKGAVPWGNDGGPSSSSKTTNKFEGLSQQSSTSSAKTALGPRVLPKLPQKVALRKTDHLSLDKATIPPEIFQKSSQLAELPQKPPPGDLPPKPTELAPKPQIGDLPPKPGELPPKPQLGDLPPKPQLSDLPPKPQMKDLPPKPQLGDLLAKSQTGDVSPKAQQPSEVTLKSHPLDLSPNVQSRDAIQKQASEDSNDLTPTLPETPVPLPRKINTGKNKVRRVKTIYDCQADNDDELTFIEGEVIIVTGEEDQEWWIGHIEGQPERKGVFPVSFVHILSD

Mu-type opioid receptor = Mu-type opioid receptor (Homo sapiens, UniProt P35372); assay type: functional, cell-based;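 further: U2OS cells with beta-arrestin recruitment to OPRM1 by beta-gal complementation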
[10] = target: 5-hydroxytryptamine receptor 2A (Mus musculus, UniProt P35363); assay type: functional, cell-based;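 further: CHO-K1 cells with tagged receptor and beta-arrestin; agonist potency measured as compound-induced activation of the receptor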
[11] = target: DNA dC->dU-editing enzyme APOBEC-3G (Homo sapiens, UniProt Q9HC16); experiment: Dose Response confirmation of small molecule APOBEC3G DNA Deaminase Inhibitors via a fluorescence-based single-stranded DNA deaminase assay. [Related pubchem assays (depositor defined):AID493012, AID493028]; assay type: functional
Sequence of DNA dC->dU-editing enzyme APOBEC-3G (Q9HC16 whole entry): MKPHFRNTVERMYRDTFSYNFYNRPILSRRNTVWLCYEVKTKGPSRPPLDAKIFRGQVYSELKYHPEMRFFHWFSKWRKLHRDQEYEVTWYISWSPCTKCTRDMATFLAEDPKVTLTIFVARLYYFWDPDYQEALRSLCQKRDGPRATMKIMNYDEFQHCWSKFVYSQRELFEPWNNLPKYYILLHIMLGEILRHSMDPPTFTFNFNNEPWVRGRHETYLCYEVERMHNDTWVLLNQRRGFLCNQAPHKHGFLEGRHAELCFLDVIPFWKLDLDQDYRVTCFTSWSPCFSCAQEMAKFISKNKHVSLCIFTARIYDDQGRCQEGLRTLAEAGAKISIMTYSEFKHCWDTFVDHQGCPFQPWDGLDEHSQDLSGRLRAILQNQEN

[12] = target: DNA dC->dU-editing enzyme APOBEC-3A (Homo sapiens, UniProt P31941); experiment: A3A deaminase inhibition for selectivity – biochemical, dose response (AID 504722); assay type: functional
[13] = target: Endoplasmic reticulum aminopeptidase 1 (Homo sapiens, UniProt Q9NZ08); experiment: inhibition of human ERAP1 enzyme activity – biochemical, cherry-pick, set 2, plate reader, dose response (AID 743314)
[14] = target: 1-phosphatidylinositol 4,5-bisphosphate phosphodiesterase beta-3 (Homo sapiens, UniProt Q01970); experiment: Fluorescence-based biochemical high throughput dose response assay to identify inhibitors of phospholipase C isozymes (PLC-B3).
Sequence of 1-phosphatidylinositol 4,5-bisphosphate phosphodiesterase beta-3 (Q01970 whole entry): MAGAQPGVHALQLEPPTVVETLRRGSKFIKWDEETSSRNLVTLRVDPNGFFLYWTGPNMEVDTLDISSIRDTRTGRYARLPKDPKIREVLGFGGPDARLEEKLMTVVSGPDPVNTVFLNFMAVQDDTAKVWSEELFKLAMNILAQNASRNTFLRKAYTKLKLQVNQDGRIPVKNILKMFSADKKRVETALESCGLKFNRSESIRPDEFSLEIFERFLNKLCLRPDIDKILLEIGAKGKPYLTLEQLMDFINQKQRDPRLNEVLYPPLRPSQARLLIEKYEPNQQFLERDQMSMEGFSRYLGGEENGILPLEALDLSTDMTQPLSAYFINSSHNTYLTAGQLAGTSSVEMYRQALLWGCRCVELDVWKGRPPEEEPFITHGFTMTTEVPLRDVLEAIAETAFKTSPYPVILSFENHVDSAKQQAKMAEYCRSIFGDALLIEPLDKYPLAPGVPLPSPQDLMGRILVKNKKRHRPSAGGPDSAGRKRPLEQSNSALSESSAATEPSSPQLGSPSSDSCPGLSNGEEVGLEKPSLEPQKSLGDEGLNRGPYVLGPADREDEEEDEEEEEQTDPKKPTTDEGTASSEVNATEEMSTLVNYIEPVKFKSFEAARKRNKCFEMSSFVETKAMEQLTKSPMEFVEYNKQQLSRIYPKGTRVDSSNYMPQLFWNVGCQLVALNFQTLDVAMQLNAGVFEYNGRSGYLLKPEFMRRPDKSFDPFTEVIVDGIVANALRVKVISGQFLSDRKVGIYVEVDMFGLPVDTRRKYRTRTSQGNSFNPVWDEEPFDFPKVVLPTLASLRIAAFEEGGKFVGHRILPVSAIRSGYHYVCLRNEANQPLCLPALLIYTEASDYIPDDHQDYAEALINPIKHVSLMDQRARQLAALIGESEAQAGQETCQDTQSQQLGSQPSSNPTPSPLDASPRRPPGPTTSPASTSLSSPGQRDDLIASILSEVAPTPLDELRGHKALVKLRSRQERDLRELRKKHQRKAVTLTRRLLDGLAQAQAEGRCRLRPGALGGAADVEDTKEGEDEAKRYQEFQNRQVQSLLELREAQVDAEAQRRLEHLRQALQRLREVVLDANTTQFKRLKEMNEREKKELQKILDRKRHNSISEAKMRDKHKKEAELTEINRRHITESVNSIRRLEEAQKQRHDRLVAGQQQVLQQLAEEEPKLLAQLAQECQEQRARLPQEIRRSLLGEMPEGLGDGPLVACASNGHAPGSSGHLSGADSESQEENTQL

[15] = target: 1-phosphatidylinositol 4,5-bisphosphate phosphodiesterase gamma-1 (Homo sapiens, UniProt P19174); experiment: Counterscreen for inhibitors of phospholipase C isozymes (PLC-B3): Fluorescence-based biochemical high throughput dose response assay to identify inhibitors of phospholipase C isozymes (PLC-gamma1).
Sequence of 1-phosphatidylinositol 4,5-bisphosphate phosphodiesterase gamma-1 (P19174 whole entry): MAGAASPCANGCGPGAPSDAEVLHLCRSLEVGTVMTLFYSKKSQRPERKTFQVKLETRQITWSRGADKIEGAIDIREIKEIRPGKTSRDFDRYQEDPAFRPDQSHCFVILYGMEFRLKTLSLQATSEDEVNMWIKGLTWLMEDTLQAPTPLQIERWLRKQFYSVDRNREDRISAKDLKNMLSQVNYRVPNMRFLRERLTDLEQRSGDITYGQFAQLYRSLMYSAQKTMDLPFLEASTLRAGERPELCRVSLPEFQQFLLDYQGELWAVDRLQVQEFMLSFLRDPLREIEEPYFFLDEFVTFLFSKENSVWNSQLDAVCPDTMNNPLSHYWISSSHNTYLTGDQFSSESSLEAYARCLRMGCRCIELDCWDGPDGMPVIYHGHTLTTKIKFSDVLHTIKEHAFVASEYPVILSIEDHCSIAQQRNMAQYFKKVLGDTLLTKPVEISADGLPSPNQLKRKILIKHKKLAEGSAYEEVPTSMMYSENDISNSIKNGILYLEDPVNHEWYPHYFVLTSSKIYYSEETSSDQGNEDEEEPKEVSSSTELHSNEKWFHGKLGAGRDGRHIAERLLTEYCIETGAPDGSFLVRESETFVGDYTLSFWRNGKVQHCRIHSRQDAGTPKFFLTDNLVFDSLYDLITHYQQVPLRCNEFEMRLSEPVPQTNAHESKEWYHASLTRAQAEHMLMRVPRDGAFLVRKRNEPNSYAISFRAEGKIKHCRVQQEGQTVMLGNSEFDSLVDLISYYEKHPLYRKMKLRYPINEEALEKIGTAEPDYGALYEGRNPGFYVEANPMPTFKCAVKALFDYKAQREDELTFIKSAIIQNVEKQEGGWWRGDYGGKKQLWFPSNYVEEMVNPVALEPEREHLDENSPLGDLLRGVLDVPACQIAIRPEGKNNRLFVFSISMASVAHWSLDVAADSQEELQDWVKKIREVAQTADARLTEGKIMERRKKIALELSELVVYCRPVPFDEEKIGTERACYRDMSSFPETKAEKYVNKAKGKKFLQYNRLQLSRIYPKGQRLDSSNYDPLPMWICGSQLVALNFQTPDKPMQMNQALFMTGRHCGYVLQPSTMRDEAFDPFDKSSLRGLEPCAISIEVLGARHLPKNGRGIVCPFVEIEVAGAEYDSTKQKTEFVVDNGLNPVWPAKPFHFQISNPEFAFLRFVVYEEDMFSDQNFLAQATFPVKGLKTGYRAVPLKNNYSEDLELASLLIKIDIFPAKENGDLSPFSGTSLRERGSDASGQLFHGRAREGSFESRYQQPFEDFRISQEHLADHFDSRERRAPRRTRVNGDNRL

[16] = Counterscreen for antagonists of the human trace amine associated receptor 1 (hTAAR1): Fluorescence-based cell-based high throughput dose response assay to identify nonselective Ga16 antagonists.; assay type: functional
[17] = target: T1, Trace amine-associated receptor 1 (Homo sapiens, UniProt Q96RJ0); experiment: Counterscreen for antagonists of the human trace amine associated receptor 1 (hTAAR1): Fluorescence-based cell-based high throughput dose response assay to identify TAAR1 Agonists.; assay type: functional
T1 sequence (Q96RJ0 whole entry): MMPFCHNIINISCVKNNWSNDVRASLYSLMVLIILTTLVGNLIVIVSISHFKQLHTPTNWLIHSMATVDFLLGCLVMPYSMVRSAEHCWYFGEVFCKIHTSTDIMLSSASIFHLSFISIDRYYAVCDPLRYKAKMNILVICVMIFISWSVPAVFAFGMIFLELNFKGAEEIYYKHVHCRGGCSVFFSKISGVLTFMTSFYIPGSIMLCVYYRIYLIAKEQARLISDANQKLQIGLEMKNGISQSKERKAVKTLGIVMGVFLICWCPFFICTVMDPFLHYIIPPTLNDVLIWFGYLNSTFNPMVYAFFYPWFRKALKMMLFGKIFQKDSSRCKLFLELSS

[18] = target: T1, Trace amine-associated receptor 1; experiment: Fluorescence-based cell-based high throughput dose response assay to identify antagonists of the human trace amine associated receptor 1 (TAAR1).; assay type: functional
[19] = Counterscreen for […] of the human trace amine associated receptor 1 (TAAR1): Fluorescence-based cell-based high throughput dose response assay to identify nonselective Ga16 agonists.; assay type: functional
[20] = target: Tyrosyl-DNA phosphodiesterase 2 (Homo sapiens, UniProt O95551); experiment: potency against TDP2 phosphodiesterase activity – biochemical, epi absorbance, IC50, dose response (AID 743297)
Sequence of Tyrosyl-DNA phosphodiesterase 2 (O95551 whole entry, the tested form may be a part): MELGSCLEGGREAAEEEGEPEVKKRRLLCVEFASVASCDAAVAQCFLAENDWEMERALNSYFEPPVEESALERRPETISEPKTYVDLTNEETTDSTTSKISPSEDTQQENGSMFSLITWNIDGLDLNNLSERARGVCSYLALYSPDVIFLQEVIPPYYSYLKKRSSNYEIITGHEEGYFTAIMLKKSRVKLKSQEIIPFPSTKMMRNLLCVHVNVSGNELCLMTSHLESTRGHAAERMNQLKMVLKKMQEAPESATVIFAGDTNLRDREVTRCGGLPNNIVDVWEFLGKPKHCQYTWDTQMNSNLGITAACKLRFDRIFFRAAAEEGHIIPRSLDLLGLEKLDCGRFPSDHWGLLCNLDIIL

[21] = target: T2, Polyadenylate-binding protein 1 (Homo sapiens, UniProt P11940); experiment: MLLE domain peptide-binding blockers, IC50 – biochemical, fluorescence polarization, FITC-PAM2 peptide, dose response (AID 602259); assay type: functional; conditions: read-out: IC50_Mean
T2 sequence (P11940 whole entry, the tested form may be a part): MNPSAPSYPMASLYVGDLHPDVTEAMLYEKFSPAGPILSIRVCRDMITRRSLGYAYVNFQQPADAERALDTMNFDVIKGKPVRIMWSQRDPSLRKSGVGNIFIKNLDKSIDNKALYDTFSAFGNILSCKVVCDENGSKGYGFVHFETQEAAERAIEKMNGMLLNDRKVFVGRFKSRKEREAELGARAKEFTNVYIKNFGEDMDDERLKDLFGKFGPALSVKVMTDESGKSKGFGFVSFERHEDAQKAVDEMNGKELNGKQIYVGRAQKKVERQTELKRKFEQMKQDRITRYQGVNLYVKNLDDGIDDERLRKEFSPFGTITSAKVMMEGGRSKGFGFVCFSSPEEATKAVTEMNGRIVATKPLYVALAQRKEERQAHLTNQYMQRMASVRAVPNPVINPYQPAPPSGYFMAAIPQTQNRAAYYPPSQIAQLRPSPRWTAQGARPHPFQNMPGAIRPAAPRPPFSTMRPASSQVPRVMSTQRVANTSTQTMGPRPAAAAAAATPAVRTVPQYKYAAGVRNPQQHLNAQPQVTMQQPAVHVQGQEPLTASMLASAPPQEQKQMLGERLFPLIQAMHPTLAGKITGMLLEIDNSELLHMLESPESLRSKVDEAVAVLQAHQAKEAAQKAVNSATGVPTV

Caspase-3 = target: T3, Caspase-3 (Homo sapiens, UniProt P42574); experiment: Dose-response confirmation of uHTS inhibitor hits of Sentrin-Specific Protease 8 in a Caspase-3 Fluorescence assay.; assay type: functional
T3 sequence (P42574 whole entry): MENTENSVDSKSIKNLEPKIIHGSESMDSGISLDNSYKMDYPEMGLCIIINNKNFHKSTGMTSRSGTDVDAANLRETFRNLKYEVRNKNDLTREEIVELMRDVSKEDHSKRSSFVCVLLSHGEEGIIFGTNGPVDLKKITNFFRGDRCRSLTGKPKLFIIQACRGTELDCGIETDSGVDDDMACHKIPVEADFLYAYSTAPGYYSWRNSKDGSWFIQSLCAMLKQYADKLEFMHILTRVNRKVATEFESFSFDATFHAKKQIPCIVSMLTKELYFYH

[22] = target: T4, Sentrin-specific protease 8 (Homo sapiens, UniProt Q96LD8); assay type: functional
T4 sequence (Q96LD8 whole entry): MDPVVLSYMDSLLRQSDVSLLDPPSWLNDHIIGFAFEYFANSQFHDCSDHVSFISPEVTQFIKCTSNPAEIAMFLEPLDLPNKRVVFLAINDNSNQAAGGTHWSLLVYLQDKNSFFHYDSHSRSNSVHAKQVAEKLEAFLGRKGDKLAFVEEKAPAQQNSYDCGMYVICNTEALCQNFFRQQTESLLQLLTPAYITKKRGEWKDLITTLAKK

[23] = target: T2, Polyadenylate-binding protein 1; experiment: MLLE binding blockers, Cy5 peptide tracer – biochemical, fluorescence polarization, Cy5-PAM2 peptide, secondary, miRNA deadenylation inhibitor project, dose response (AID 602260); assay type: functional; conditions: read-out: IC50_Mean
[24] = target: T4, Sentrin-specific protease 8; assay type: functional; remark: listed apart in the source
Paired box protein Pax-8 = Paired box protein Pax-8 (Homo sapiens, UniProt Q06710); experiment: PAX8 transcriptional activity inhibition in RMG-I – RMG-I cells, luciferase, cherry-pick, dose response (AID 687027); assay type: functional, cell-based;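 further: luciferase reporter driven by Pax8 target thyroperoxidase promoter measured by SteadyGlo luminescence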
[25] = toxicity toward immortalized ovarian surface epithelium – cell-based, plate reader, dry powder samples, cytotoxicity control for PAX8 inhibitor project, dose response (AID 743045); assay type: functional
[26] = OVCAR-3 cell viability loss – plate reader, dry powder samples, PAX8 inhibitor project, dose response (AID 743044); assay type: functional, cell-based
cells = conditions: HEK293

**Q.** Which IC50 [1] does the source give for `CNc1c(C(=O)O)ccc2c1C(=O)c1ccccc1C2=O` here?
**A.** 18.5 µM (active)

**Q.** With `COc1ccccc1N=C(S)NNC(=O)c1nn(C)c(C)c1Br` as the compound, how does the IC50 [2] read?
**A.** > 100 µM (inactive)

**Q.** What about the IC50 [3] of the same compound?
**A.** > 122 µM (inactive)

**Q.** For `Clc1cccc(Cl)c1CONC=Nc1ncnc2sccc12`, which IC50 [4] is on record?
**A.** 30.3 µM (inactive)

**Q.** And the IC50 (HEK293 [5])?
**A.** 8.22 µM (active)

**Q.** And the EC50 (HEK293 [6])?
**A.** > 20 µM (inactive)

**Q.** And the IC50 (HEK293 [7])?
**A.** 7.79 µM (active)

**Q.** And the IC50 (HEK293 [8])?
**A.** > 20 µM (inactive)

**Q.** And the IC50 [9]?
**A.** 12.3 µM (inactive)

**Q.** Which EC50 (Mu-type opioid receptor) does the source give for `OCC1(Cc2ccc(Cl)cc2)CCN(CCCc2ccccc2)CC1` here?
**A.** 92.5 µM (inactive)

**Q.** And the EC50 [10]?
**A.** 76.1 µM (inactive)

**Q.** What does the source list for `O=C(CSc1cnn[nH]1)Nc1cccc(C(=O)O)c1`?
**A.** IC50 [11]: 15.3 µM (active); IC50 [12]: > 100 µM (inactive); AC50 [13]: 8 µM (active)

**Q.** What does the source list for `O=C(C[S+]([O-])c1cccc(C(F)(F)F)c1)Nc1ccc(Cl)cc1Cl` (stereo not given)?
**A.** IC50 [14]: > 122 µM (inactive); IC50 [15]: 56.9 µM (inactive)

**Q.** With `CCOC(=O)C1CCCN(c2c(C(=O)c3ccccc3)cnc3ccc(OC)cc23)C1` (stereo not given) as the compound, how does the IC50 [16] read?
**A.** > 29.9 µM (inactive)

**Q.** What about the EC50 [17] of the same compound?
**A.** 11.6 µM (inactive)

**Q.** What about the IC50 [18] of the same compound?
**A.** 4.06 µM (active)

**Q.** And the EC50 [19]?
**A.** > 29.9 µM (inactive)

**Q.** What does the source list for `COc1ccc2c(c1)Cc1sc(NC(C)=O)nc1-2`?
**A.** IC50 [20]: 67.5 µM (inactive); IC50 [21]: > 66 µM (inactive); IC50 (Caspase-3): 23.9 µM (active); IC50 [22]: 6.35 µM (active); IC50 [23]: > 66 µM (inactive); IC50 [24]: 9.19 µM (active)

**Q.** Which results are given for `C[C@@H]1CCCCO[C@H](CN(C)Cc2ccccc2)[C@H](C)CN([C@@H](C)CO)C(=O)c2cc(NC(=O)Nc3ccc(C(F)(F)F)cc3)ccc2O1`?
**A.** AC50 (Paired box protein Pax-8): 9.11 µM (active); AC50 [25]: 45.7 µM (active); AC50 [26]: 42.1 µM (active)

**Q.** For `CC1CCN(C(=O)COc2cccc3c2CCN(Cc2ccccc2)C3=O)CC1`, which AC50 (cells) is on record?
**A.** 28.7 µM (active)
